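Five compound concentrations were applied to cells in 96-well plates for 48 hours; endpoints were derived by simple linear interpolation of the resulting dose-response curve. At the GI50, growth is halved. TGI denotes the concentration required for complete inhibition of growth.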
Columns and labels:
Test in all cases: inhibition of tumour cell growth, NCI panel, 48 h
A549 NSCLC = tested on: A549 NSCLC
IGROV1 ovarian = tested on: IGROV1 ovarian
KM12 colon = tested on: KM12 colon
M14 melanoma = tested on: M14 melanoma
MALME-3M melanoma = tested on: MALME-3M melanoma
MOLT-4 leukemia = tested on: MOLT-4 leukemia
NCI-H460 lung = tested on: NCI-H460 lung
OVCAR-4 ovarian = tested on: OVCAR-4 ovarian
RPMI-8226 leukemia = tested on: RPMI-8226 leukemia
SK-MEL-5 melanoma = tested on: SK-MEL-5 melanoma

| Compound | TGI (A549 NSCLC) [µM] | TGI (IGROV1 ovarian) [µM] | TGI (KM12 colon) [µM] | TGI (M14 melanoma) [µM] | TGI (MALME-3M melanoma) [µM] | TGI (MOLT-4 leukemia) [µM] | TGI (NCI-H460 lung) [µM] | TGI (OVCAR-4 ovarian) [µM] | TGI (RPMI-8226 leukemia) [µM] | TGI (SK-MEL-5 melanoma) [µM] | GI50 (A549 NSCLC) [µM] | GI50 (IGROV1 ovarian) [µM] | GI50 (KM12 colon) [µM] | GI50 (M14 melanoma) [µM] | GI50 (MALME-3M melanoma) [µM] | GI50 (MOLT-4 leukemia) [µM] | GI50 (NCI-H460 lung) [µM] | GI50 (OVCAR-4 ovarian) [µM] | GI50 (RPMI-8226 leukemia) [µM] | GI50 (SK-MEL-5 melanoma) [µM] |
| --- | --- | --- | --- | --- | --- | --- | --- | --- | --- | --- | --- | --- | --- | --- | --- | --- | --- | --- | --- | --- |
| COc1ccc(CCNCc2cccc(OC)c2OC)cc1OC | > 100 | > 100 | > 100 | > 100 | > 100 | > 100 | > 100 | > 100 | > 100 | > 100 |  |  |  |  |  |  |  |  |  |  |
| COC(=O)c1c2c(c(C)[n+]([O-])c1C)C(=O)C(NCc1cccc(OC)c1)=CC2=O | 9.36 | 4.11 | 11.6 | 3.72 | 1.3 | 6.67 | 8 | 2.55 | 15.9 | 2.47 | 2.35 | 1.69 | 2.48 | 1.79 | 0.318 | 2.39 | 1.71 | 1.27 | 2.93 | 1.2 |
| CCCCCCNC(=O)Oc1ccc(/C(=C(\C)c2ccccc2)c2ccc(OCCN3CCCCC3)cc2)cc1 | 18.6 | 8.85 | 7.63 | 3.97 | 3.46 | 9.66 | 4.35 | 10.7 | 5.57 | 2.99 | 4.31 | 3.01 | 2.61 | 1.98 | 1.75 | 2.68 | 2.05 | 3.04 | 2.38 | 1.63 |
| COc1ccc(NC(=O)c2sc3nc(C)c(C(O)c4ccc(OC)cc4)cc3c2N)cc1 (stereo not given) | > 50 | > 50 | > 50 | > 50 | > 50 | > 50 | 9.97 | > 50 | > 50 | 6.82 | 0.258 | 1.85 | 0.76 | 1 | 2.65 | 2.17 | 0.17 | 5.12 | 1.62 | 0.569 |
| COc1ccc(/C(Cl)=C(\C=O)c2ccc(OC)c(OC)c2)cc1OC | > 100 | > 100 | > 100 | > 100 | > 100 | > 100 | > 100 | > 100 | > 100 | > 100 |  |  |  |  |  |  |  |  |  |  |
| C[C@@]1(c2ncncc2F)NC(=O)c2cc(-c3cn[nH]c3)ccc21 | > 100 | > 100 | > 100 | 77.7 | 68.4 | > 100 | > 100 | > 100 | 95.2 | > 100 | 28.2 | 21.4 | 29.6 | 15.2 | 12.9 | 26.5 | 25 | 38.5 | 31 | 20 |
| COc1cc(-c2nn(C(=O)NS(=O)(=O)c3ccc(C)cc3)cc2-c2ccncc2)ccc1Cl | 35 | > 100 | 43.5 | 14.2 | 15.6 | 54.1 | 38.5 | 27.3 | > 100 | 17.1 | 4.43 | 5.1 | 11 | 3.6 | 4.14 | 10.6 | 13.3 | 3.26 | 15.5 | 4.58 |
